In PMC13355314, “Charged molecular glue discovery enabled by targeted degron display” (Nature Chemical Biology, 2026):
“And” between values parts separate entries of the source, which are not always exact repeats. Equal values may be shown once. “Also recorded” adds a separate entry of the source.

Columns and labels:
[1] = molecular target: T1, *BRD4BD1 / YPEL5-CTLH E3 (Homo sapiens, UniProt O60885+P62699); experiment: In vitro ubiquitylation assay (YPEL5-CTLH E3, UBE2H); type: biochemical; details: YPEL5-CTLH E3-dependent
T1 construct: fluorescent BRD4 bromodomain substrates, either in isolation (BRD4BD1 and BRD4BD2) or in tandem (BRD4BD1+BD2); GST (N, cleaved yes); made in house; host or cells: CTLH E3 and UBA1: High Five insect cells; BRD4BD1, UBE2H, ubiquitin: E. coli BL21 (DE3) RIL
Procedure: All ubiquitylation assays were performed at room temperature in the final reaction buffer containing 25 mM HEPES pH 7.5, 150 mM NaCl, 0.25 mM DTT, 5 mM ATP and 10 mM MgCl2. Samples at indicated time points were quenched by mixing an aliquot of the total reaction mixture with a reducing Laemmli buffer and subjected to SDS–PAGE. Substrate ubiquitylation was visualized by a fluorescence scan of SDS–PAGE gels using the Amersham Typhoon Imager 600 (GE Healthcare).
The mixture was incubated at room temperature for 1 h and supplemented with 0.2 μM E1 UBA1 and 20 μM ubiquitin to initiate the reaction.

[2] = molecular target: T2, FAM–BRD4BD1 + YPEL5–WDR26 module (Homo sapiens, UniProt O60885+P62699); experiment: FP assay quantifying ternary complex formation; details: *BRD4BD1 binding to YPEL5–WDR26 upon degrader titration
T2 construct: fluorescent BRD4 bromodomain substrates, either in isolation (BRD4BD1 and BRD4BD2) or in tandem (BRD4BD1+BD2); GST (N, cleaved yes); made in house; host or cells: BRD4BD1: E. coli BL21 (DE3) RIL; YPEL5–WDR26ΔCTLH: Trichoplusia ni High Five insect cells
Excerpt: The potency of the degraders was expressed as the EC50 estimated by nonlinear regression using a four-parameter [agonist] versus response model.

[3] = molecular target: T3, BRD4 (Homo sapiens, UniProt O60885); experiment: HiBiT–BRD4 assay (endogenous BRD4 protein levels); type: cell-based
T3 construct: Endogenous BRD4 protein levels were evaluated using the Nano-Glo HiBiT lytic detection system; endogenous in cells; host or cells: Jurkat (HiBiT knock-in; some series in YPEL5-/- cells re-expressing WT or mutant YPEL5-FLAG)
Procedure: Introduction of a HiBiT coding sequence into the endogenous BRD4 locus in Jurkat cells was achieved using CRISPR–Cas9 genome editing. Alt-R CRISPR RNA (crRNA) and trans-activating crRNA (tracrRNA) (Integrated DNA Technologies) were resuspended in nuclease-free duplex buffer (Integrated DNA Technologies) at a concentration of 200 µM each. Equal volumes of crRNA and tracrRNA were mixed (final concentration of 100 µM each) and heated for 5 min at 95 °C. After heating, the complex was gradually cooled to room temperature. The oligo complex was then incubated at room temperature for 20 min with the Alt-R Cas9 nuclease V3 (Integrated DNA Technologies) to form the ribonucleoprotein (RNP) complex. The double-stranded DNA homology-directed repair (HDR) template (HiBiT–BRD4 with extensions, shown below), the RNP complex and an electroporation enhancer (Integrated DNA Technologies) were then electroporated into Jurkat cells using an Amaxa 4D-Nucleofector (Lonza). Electroporated cells were transferred to medium with HRD enhancer (Integrated DNA Technologies). Single cells were subsequently isolated by fluorescence-activated cell sorting and HiBiT expression from individual clones was detected with the Nano-Glo HiBiT lytic detection system (Promega). Sequences for the crRNA and HDR donor are provided below.
Endogenous BRD4 protein levels were evaluated using the Nano-Glo HiBiT lytic detection system (Promega). In brief, 1.5 × 10^4 HiBiT–BRD4 Jurkat cells were seeded into 384-well plates and incubated with the indicated concentrations of compounds. After 5 h, the plates were subjected to a Nano-Glo HiBiT lytic detection system as described in the manufacturer’s manual. The HiBiT–BRD4 assays were conducted in biological triplicates.

[4] = Microsome stability, HLM; type: in vitro ADME; details: human, liver microsomes; for half-life: read-out: HLM Stability (T1/2 min)
[5] = Microsome stability, MLM; type: in vitro ADME; details: mouse, liver microsomes; for half-life: read-out: MLM Stability (T1/2 min)
[6] = molecular target: T4, BRD4BD2 (Homo sapiens, UniProt O60885); experiment: BRD4 reporter stability analysis, BRD4BD2–eGFP (K562-Cas9, flow cytometry); type: cell-based; details: for DC50: BRD4BD2 reporter, K562, 16 h; for Dmax: K562
T4 construct: host or cells: K562-Cas9
Procedure: (§1) The Cilantro 2 reporter vector (PGK.BsmBICloneSite-10aaFlexibleLinker-eGFP.IRES.mCherry. cppt.EF1α.PuroR; Addgene, 74450) was used for flow-based degradation assays. […] Reporter cell lines were generated as described previously.
(§2) Then, 50 µl of cell suspension was seeded in 384-well plates and immediately treated with DMSO or drug for 16 h. The indicated drugs were dispensed with a D300 digital dispenser (Tecan Genomics). The fluorescence signal was quantified by flow cytometry (FACSymphony flow cytometer, BD Biosciences). Using FlowJo (flow cytometry analysis software, BD Biosciences), the geometric mean of the eGFP and mCherry fluorescent signal for round and mCherry-positive cells was calculated. The ratio of eGFP to mCherry was normalized to the average of ten DMSO-treated controls.

[7] = Plasma stability, human; type: in vitro ADME; details: read-out: Plasma Stability (T1/2 min)
[8] = molecular target: T5, BRD2BD1 (Homo sapiens, UniProt P25440); experiment: Cellular fluorescent reporter assay, BRD2 BD1; type: cell-based
T5 construct: Cellular fluorescent reporter assay testing ZZ1-induced degradation of BRD2 and BRD3 BD1 bromodomains; expressed in transfected cells
T5 sequence (P25440 74-180 limits assumed): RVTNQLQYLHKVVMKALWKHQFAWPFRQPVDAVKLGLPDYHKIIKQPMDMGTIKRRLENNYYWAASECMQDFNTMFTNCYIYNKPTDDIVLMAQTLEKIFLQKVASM
Procedure: as §2

[9] = molecular target: T6, BRD4BD1 (Homo sapiens, UniProt O60885); experiment: cell-based; type: cell-based; details: K562, 16 h
T6 construct: host or cells: K562-Cas9
Procedure: Reporter cell lines were generated as described previously.
as §2

[10] = Plasma stability, mouse; type: in vitro ADME; details: read-out: Plasma Stability (T1/2 min)
[11] = molecular target: T7, BRD3BD1 (Homo sapiens, UniProt Q15059); experiment: Cellular fluorescent reporter assay, BRD3 BD1; type: cell-based
T7 construct: Cellular fluorescent reporter assay testing ZZ1-induced degradation of BRD2 and BRD3 BD1 bromodomains; expressed in transfected cells
T7 sequence (Q15059 34-140 limits assumed): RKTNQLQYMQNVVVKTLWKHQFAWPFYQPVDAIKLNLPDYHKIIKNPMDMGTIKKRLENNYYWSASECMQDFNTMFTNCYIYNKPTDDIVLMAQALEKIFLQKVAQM
Procedure: as §2

[12] = system: BRD2, BRD3, BRD4; experiment: Western blotting of BET protein degradation; type: cell-based, human; details: immunoblotting (and proteome-wide MS)
Procedure: Total cells lysates were prepared in 2× sample loading buffer (that is, 250 mM Tris-HCl pH 6.8, 4% SDS, 10% glycerol, 0.006% bromophenol blue, 2% β-mercaptoethanol, 50 mM sodium fluoride and 5 mM sodium orthovanadate). The samples with cell lysates were boiled for 5–8 min at 95 °C. The protein concentrations of the cell lysates were quantified using the BCA method and a BCA protein assay kit (Thermo Fisher Scientific). […] After washing the membranes with PBS for 30 min, the membranes were detected on a Li-COR Odyssey CLx system.

[13] = GSH chemical stability; type: physicochemical; details: for half-life: GSH chemical stability; for remaining at 5 min / remaining at […] / remaining at 0.5 h / remaining at 1 h / remaining at 2 h: GSH; for remaining at […]: 15 min; for remaining at 0.5 h: 30 min; for remaining at 1 h: 60 min; for remaining at 2 h: 120 min
Excerpt: Afatinib Time Peak Area %Remaining Ln T1/2
(Ctrl) (min) Ratio (%remaining) (min)
(min) Ratio (%remaining) (min)

[14] = system: FAM–BRD4BD1 + YPEL5–WDR26; experiment: Real-time FP monitoring the rate of ternary complex formation; type: binding, human; details: in vitro, DTT-containing buffer
Procedure: Here, the concentration of DTT in the binding buffer used for preparing the tracer–E3 ligase mixture varied from 0.1 to 5 mM.

[15] = molecular target: T8, BRD4BD1+BD2 (Homo sapiens, UniProt O60885); experiment: BRD4 reporter stability analysis, BRD4BD1+BD2–eGFP (K562-Cas9, flow cytometry); type: cell-based; details: K562, 16 h
T8 construct: host or cells: K562-Cas9
Procedure: as §1, §2

[16] = system: ternary complex of *BRD4BD1, ZZ1-SO2H and YPEL5-WDR26; experiment: Competitive FP disrupting the ternary complex; type: binding, human
Excerpt: The four-parameter [inhibitor] versus response model was applied to estimate the IC50.

[17] = molecular target: T9, YPEL5 (Homo sapiens, UniProt P62699); experiment: Octet BLI, binary affinity of degrader for YPEL5 (no BRD4BD1); type: binding; details: absence of BRD4BD1
T9 construct: made in house; host or cells: Trichoplusia ni High Five insect cells
T9 sequence (P62699 2-121): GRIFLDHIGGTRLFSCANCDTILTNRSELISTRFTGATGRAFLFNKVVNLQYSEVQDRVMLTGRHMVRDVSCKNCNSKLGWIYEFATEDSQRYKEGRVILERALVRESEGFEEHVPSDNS
Procedure: To quantify interactions between the degrader-bound neosubstrates and the CTLH E3 neosubstrate receptor module, we determined the KD using Octet BLI.
For each measurement, one of the loaded sensors was dipped in the reference solution containing 0 or 5 μM degrader in the BLI binding buffer (in the absence of the analyte protein). The reference response values were subtracted from the responses elicited by all the neosubstrate-containing solutions before data analysis. All BLI experiments were carried out at 20 °C using the eight-channel Octet R8 system (Sartorius). Concentrated proteins and compounds were diluted in the BLI binding buffer composed of 25 mM HEPES pH 7.5, 150 mM NaCl, 1 mM DTT and 0.05% Tween-20.
The raw data were processed with Octet analysis software (Sartorius) by applying a global fitting with linked Rmax values (assuming a 1:1 binding model). […] KD was estimated by nonlinear regression using the one-site binding model.

Structure (SMILES): Cc1sc2c(c1C)C(c1ccc(NC(=O)c3cc(Cl)c(S(=O)O)c(Cl)c3)cc1)=N[C@@H](CC(=O)OC(C)(C)C)c1nnc(C)n1-2 [ZZ2-SO2H, 4-((4-((S)-6-(2-(tert-butoxy)-2-oxoethyl)-2,3,9-trimethyl-6H-thieno[3,2-f][1,2,4]triazolo[4,3-a][1,4]diazepin-4-yl)phenyl)carbamoyl)-2,6-dichlorobenzenesulfinic acid]
- BRD4BD1 ubiquitylation in vitro [1]: promotes more robust BRD4BD1 ubiquitylation
- EC50 [2]: < 74 nM

Structure (SMILES): Cc1sc2c(c1C)C(c1ccc(NC(=O)c3ccc(S(=O)(=O)O)c(Cl)c3)cc1)=N[C@@H](CC(=O)OC(C)(C)C)c1nnc(C)n1-2 [ZZ1-SO3H]
- activity in cellular assays [3]: inactive
- BRD4BD1 ubiquitylation in vitro [1]: promoted robust BRD4BD1 ubiquitylation

Structure (SMILES): CCN(CC)CCNC(=O)c1c(C)[nH]c(/C=C2\C(=O)Nc3ccc(F)cc32)c1C [Sunitinib, reference compound]
- microsomal CLint [4]: 32 µL/min/mg
- half-life [4]: 43.5 min
- microsomal CLint [5]: 38 µL/min/mg
- half-life [5]: 36.5 min

Structure (SMILES): Cc1sc2c(c1C)C(c1ccc(NC(=O)c3ccc(S(=O)(=O)F)c(Cl)c3)cc1)=N[C@@H](CC(=O)OC(C)(C)C)c1nnc(C)n1-2 [ZZ1]
- DC50 [6]: 532 ± 80.2 nM
- Dmax [6]: 40%
- microsomal CLint [4]: 195 µL/min/mg
- half-life [4]: 7.1 min
- half-life [7]: 45 min
- DC50 [8]: 70.1 ± 3.6 nM
- Dmax [8]: 63%
- DC50 ([9]; BRD4BD1 reporter): 126 nM and 128 nM
- Dmax ([9]; BRD4BD1 reporter): 88%
- Dmax ([9]; K562, BRD4BD1 reporter): 69%
- microsomal CLint [5]: 254 µL/min/mg
- half-life [5]: 5.5 min
- half-life [10]: 57 min
- DC50 [11]: 33.5 ± 5.4 nM
- Dmax [11]: 73%
- BET protein degradation [12]: induced selective degradation of BET proteins (BRD3, BRD4 and, to a lesser extent, BRD2); also recorded: especially potent in the Ewing sarcoma TC-71 cell line
- Dmax ([3]; Jurkat): 82%
- DC50 ([3]; Jurkat cells pretreated with MG132 for 1 h, then ZZ1 5 h): > 20000 nM
- DC50 ([3]; Jurkat cells pretreated with MLN-4924 for 1 h, then ZZ1 5 h): 1400 ± 130 nM
- DC50 ([3]; Jurkat cells, 5 h): 502 nM and 489 nM
- DC50 ([3]; Jurkat, 5 h, cells pretreated with 100 μM GSH for 2 h): 152 ± 19 nM
- DC50 ([3]; Jurkat, 5 h, no GSH pre-treatment): 237 ± 20 nM
- DC50 ([3]; WT YPEL5-expressing Jurkat cells, 5 h): 168 ± 15 nM
- DC50 ([3]; YPEL5 L62A-expressing Jurkat cells, 5 h): 841 ± 137 nM
- DC50 ([3]; YPEL5 R41A-expressing Jurkat cells, 5 h): 719 ± 102 nM
- DC50 ([3]; YPEL5 T36A-expressing Jurkat cells, 5 h): 971 ± 176 nM
- half-life ([13]; buffer): < 5 min
- remaining at 5 min ([13]; buffer): 26.7%
- remaining at […] ([13]; buffer): 9.36%
- remaining at 0.5 h ([13]; buffer): 3.21%
- remaining at 1 h ([13]; buffer): 3.12%
- remaining at 2 h ([13]; buffer): 2.27%
- rate of ternary complex formation [14]: induced ternary complex formation slowly
- DC50 [15]: 75 ± 16.4 nM
- Dmax [15]: 80%

Structure (SMILES): Cc1sc2c(c1C)C(c1ccc(Cl)cc1)=N[C@@H](CC(=O)OC(C)(C)C)c1nnc(C)n1-2 [JQ1, reference compound]
- disruption of the ternary complex [16]: could disrupt the ternary complex

Structure (SMILES): Cc1sc2c(c1C)C(c1ccc(NC(=O)c3cc(Cl)c(S(=O)(=O)F)c(Cl)c3)cc1)=N[C@@H](CC(=O)OC(C)(C)C)c1nnc(C)n1-2 [ZZ2]
- DC50 [6]: 198 ± 75.5 nM
- Dmax [6]: 31%
- microsomal CLint [4]: 670 µL/min/mg
- half-life [4]: 2.1 min
- half-life [7]: 14 min
- DC50 [8]: 46.4 ± 6.6 nM
- Dmax [8]: 76%
- DC50 ([9]; BRD4BD1 reporter): 91 ± 8.8 nM
- Dmax ([9]; K562, BRD4BD1 reporter): 81%
- microsomal CLint [5]: 741 µL/min/mg
- half-life [5]: 1.9 min
- half-life [10]: 7 min
- DC50 [11]: 21.1 ± 3.1 nM
- Dmax [11]: 82%
- DC50 ([3]; Jurkat cells, 5 h): 169 nM
- half-life ([13]; buffer): < 5 min
- remaining at 5 min ([13]; buffer): 9.27%
- remaining at […] ([13]; buffer): 4.72%
- remaining at 0.5 h ([13]; buffer): 0%
- remaining at 1 h ([13]; buffer): 0%
- remaining at 2 h ([13]; buffer): 0%
- rate of ternary complex formation [14]: much faster rate

Structure (SMILES): Cc1sc2c(c1C)C(c1ccc(NC(=O)c3ccc(S(=O)O)c(Cl)c3)cc1)=N[C@@H](CC(=O)OC(C)(C)C)c1nnc(C)n1-2 [ZZ1-SO2H]
- affinity between degrader and YPEL5 by BLI [17]: did not observe measurable affinity
- activity in cellular assays [3]: inactive
- BRD4BD1 ubiquitylation in vitro [1]: promoted robust BRD4BD1 ubiquitylation
- EC50 [2]: 60 nM and ~60 nM and 74 nM

Structure (SMILES): CN(C)C/C=C/C(=O)Nc1cc2c(Nc3ccc(F)c(Cl)c3)ncnc2cc1O[C@H]1CCOC1 [Afatinib, reference compound]
- half-life ([13]; glutathione (GSH) solution): 25.2 min
- remaining at 5 min ([13]; glutathione (GSH) solution): 82.1%
- remaining at […] ([13]; glutathione (GSH) solution): 48.1%
- remaining at 0.5 h ([13]; glutathione (GSH) solution): 27.6%
- remaining at 1 h ([13]; glutathione (GSH) solution): 13.8%
- remaining at 2 h ([13]; glutathione (GSH) solution): 3.43%
